What was measured:
[1] = tested on: diabetic patient; experiment: Saliva secretion in a diabetic patient after instillation of 0.3% eye drops; type: in vivo, human; settings: 0.3% eye drops instilled four times a day, sixth day after start of administration
Text: [3-(4-Bromo-2-fluorobenzyl)-7-chloro-2,4-dioxo-1,2,3,4-tetrahydroquinazolin-1-yl]acetate, a compound represented by the general formula (II) having aldose reductase-inhibiting effect as an active ingredient was used for preparation of a 0.3% eye drops.
The 0.3% eye drops was instilled to a diabetic patient four times a day.

[2] = tested on: Male Sprague-Dawley rats; experiment: Effect on saliva secretion in rats (filter-paper infiltration distance); type: in vivo, rat; settings: 50 μL of 0.3% solution intraorally three times a day on Day 1 and 2, measured Day 3 one hour after administration
Procedure: [3-(4-Bromo-2-fluorobenzyl)-7-chloro-2,4-dioxo-1,2,3,4-tetrahydroquinazolin-1-yl]acetate, a compound represented by the general formula (II) having aldose reductase-inhibiting effect as an active ingredient was used for preparation of a 0.3% solution.
Male Sprague-Dawley rats (aged 7 weeks) were used. The rats were intraorally administered with 50 μL of the 0.3% solution or distilled water three times a day (10:00, 14:00, 18:00) on Day 1 and Day 2. On Day 3, the time upon lapse of one hour after the administration at 10:00 and 14:00, a strip of filter-paper (Schirmer Tear Production Measuring Strips: SHOWA YAKUHIN KAKO CO., LTD.) with the length of 37 mm and width of 5 mm was inserted between the lower teeth gums and the lower jaw of the rat to absorb the saliva into the filter-paper. The infiltration distance of the saliva into the filter-paper was measured every 1 minute for 5 minutes.

What does the source list for `O=C(O)Cn1c(=O)n(Cc2ccc(Br)cc2F)c(=O)c2ccc(Cl)cc21` [formula (II), [3-(4-bromo-2-fluorobenzyl)-7-chloro-2,4-dioxo-1,2,3,4-tetrahydroquinazolin-1-yl]acetate]?
saliva secretion [1]: obvious sthenia of saliva secretion; The infiltration distance of the saliva into filter-paper, mm, mean ± S.E., after 1 min. ([2]; after 1 min.): 8.1 ± 1.5 mm; The infiltration distance of the saliva into filter-paper, mm, mean ± S.E., after 2 min. ([2]; after 2 min.): 10.6 ± 1.8 mm; The infiltration distance of the saliva into filter-paper, mm, mean ± S.E., after 3 min. ([2]; after 3 min., * P<0.05 vs control): 12.6 ± 2.0* mm; The infiltration distance of the saliva into filter-paper, mm, mean ± S.E., after 4 min. ([2]; after 4 min., * P<0.05 vs control): 13.6 ± 2.1* mm; The infiltration distance of the saliva into filter-paper, mm, mean ± S.E., after 5 min. ([2]; after 5 min.): 14.5 ± 2.3 mm
